In patent US10975056B2 (GlaxoSmithKline Intellectual Property Development Limited, priority 2016, dated 2021):
Where “and” joins values, the source holds several entries; their conditions need not be identical. Equal values may be shown once. Read-outs that look alike come from different tables or passages of the source.

Columns and labels:
[1] = molecular target: DNMT1 (Homo sapiens, UniProt P26358); assay: DNMT1 biochemical activity, breaklight assay and/or SPA assay
[2] = system: erythroid progenitor cells (EPCs); assay: Fetal hemoglobin (HbF) ELISA in day 7 erythroid progenitor cells; type: cell-based, human; settings: Homo sapiens, Erythroid progenitor cell, read-out: EPC ELISA (pEC50 category) (converted);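 as to EPC ELISA (pEC50 category): for fetal hemoglobin induction normalized to vehicle-treated cells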
Outline: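 Day 7 EPCs from human bone marrow CD34+ cells were plated at 1,000 cells/well in media with 3 U/mL rhEPO. They were exposed to a 22-point dilution ([…]) for 5 days at 37 °C. Lysate HbF was measured by sandwich ELISA (OD450) and normalized to DMSO control wells.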

[3] = binned activity in either the breaklight or the SPA assay
[4] = binned activity in either the breaklight or the SPA assay, read-out: DNMT1 BioChemical (pIC50 category) (converted)
[5] = breaklight assay and/or SPA assay, repeated experimental runs, read-out: average pIC50 against DNMT1 (converted)

Sequence of DNMT1 (P26358 whole entry, looked up): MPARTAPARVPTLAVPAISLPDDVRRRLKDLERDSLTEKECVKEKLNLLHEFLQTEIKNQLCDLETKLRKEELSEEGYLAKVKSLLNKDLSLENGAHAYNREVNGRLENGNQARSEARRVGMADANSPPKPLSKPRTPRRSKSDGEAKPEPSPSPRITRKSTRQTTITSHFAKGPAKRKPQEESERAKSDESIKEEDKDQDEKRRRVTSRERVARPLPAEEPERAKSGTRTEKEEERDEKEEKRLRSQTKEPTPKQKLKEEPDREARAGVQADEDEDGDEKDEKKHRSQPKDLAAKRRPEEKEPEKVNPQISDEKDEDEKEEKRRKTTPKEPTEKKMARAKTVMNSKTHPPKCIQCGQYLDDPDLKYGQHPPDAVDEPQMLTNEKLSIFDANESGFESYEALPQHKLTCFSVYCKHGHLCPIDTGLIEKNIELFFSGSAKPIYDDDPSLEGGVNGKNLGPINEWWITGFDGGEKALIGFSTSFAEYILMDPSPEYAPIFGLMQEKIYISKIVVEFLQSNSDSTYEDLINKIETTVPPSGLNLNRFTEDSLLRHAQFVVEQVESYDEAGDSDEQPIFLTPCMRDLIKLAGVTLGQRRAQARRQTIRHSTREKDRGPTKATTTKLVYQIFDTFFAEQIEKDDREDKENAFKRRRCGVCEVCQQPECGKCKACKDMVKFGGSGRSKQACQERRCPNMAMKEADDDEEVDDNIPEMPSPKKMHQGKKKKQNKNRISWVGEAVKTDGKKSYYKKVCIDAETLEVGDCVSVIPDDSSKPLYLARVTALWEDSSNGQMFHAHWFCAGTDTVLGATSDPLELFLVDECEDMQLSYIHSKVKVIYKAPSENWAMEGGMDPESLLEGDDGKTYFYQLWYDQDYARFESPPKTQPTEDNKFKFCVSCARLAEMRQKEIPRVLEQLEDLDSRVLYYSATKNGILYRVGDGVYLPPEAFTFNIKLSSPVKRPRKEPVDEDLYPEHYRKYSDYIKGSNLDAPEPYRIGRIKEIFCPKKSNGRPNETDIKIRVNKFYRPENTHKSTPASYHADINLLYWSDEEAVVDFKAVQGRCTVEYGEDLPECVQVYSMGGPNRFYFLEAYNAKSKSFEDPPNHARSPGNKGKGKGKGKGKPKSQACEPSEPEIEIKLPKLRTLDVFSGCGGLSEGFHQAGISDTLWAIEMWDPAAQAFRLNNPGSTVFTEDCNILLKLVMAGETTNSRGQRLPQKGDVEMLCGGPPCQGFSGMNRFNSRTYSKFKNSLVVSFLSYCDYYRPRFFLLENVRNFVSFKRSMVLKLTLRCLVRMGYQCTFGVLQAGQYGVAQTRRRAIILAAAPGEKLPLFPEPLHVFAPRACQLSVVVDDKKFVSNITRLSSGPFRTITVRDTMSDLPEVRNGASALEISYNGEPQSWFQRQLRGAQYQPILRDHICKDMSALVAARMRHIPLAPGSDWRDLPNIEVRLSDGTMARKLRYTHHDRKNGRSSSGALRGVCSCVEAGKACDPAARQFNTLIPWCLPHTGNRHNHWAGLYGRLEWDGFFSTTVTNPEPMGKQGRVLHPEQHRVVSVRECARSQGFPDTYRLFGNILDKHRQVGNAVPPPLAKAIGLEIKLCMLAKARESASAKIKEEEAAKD

Row | Structure (SMILES) | DNMT1 BioChemical (pIC50 category) [1, 3] | EC50 ([2]; HbF ELISA, day 7 EPCs, 5 days) [nM] | IC50 [1, 4] [nM] | EC50 [2] [nM] | IC50 [1, 5] | average pIC50 against DNMT1 ([1]; breaklight assay and/or SPA assay, repeated experimental runs)
1 | CCc1c(C#N)c(SCc2ccc(CC(=O)NCCO)cc2)nc(N2CCCN(C)CC2)c1C#N [Example 343, 2-(4-(((3,5-Dicyano-4-ethyl-6-(4-methyl-1,4-diazepan-1-yl)pyridin-2-yl)thio)methyl)phenyl)-N-(2-hydroxyethyl)acetamide] | D (Category D: ≥6.5) | 316 to 1000 |  |  |  | 
2 | CCc1c(C#N)c(S[C@@H](C(N)=O)c2ccccc2)nc(N2CC[C@](O)(CO)C2)c1C#N [Example 689, (R)-2-((3,5-dicyano-4-ethyl-6-((R)-3-hydroxy-3-(hydroxymethyl)pyrrolidin-1-yl)pyridin-2-yl)thio)-2-phenylacetamide] | D (Category D: ≥6.5) | 1000 to 31600 |  |  |  | 
3 | CCc1c(C#N)c(SC(C(N)=O)c2ccccc2)nc(N2CC[C@H](OP(=O)(O)O)C2)c1C#N (stereo partly drawn) [Example 415, (3S)-1-(6-((2-amino-2-oxo-1-phenylethyl)thio-3,5-dicyano-4-ethylpyridin-2-yl) Pyrrolidin-3-yldihydrogen phosphate] |  |  | 1000 to 31600 | 1000 to 31600 |  | 
4 | CCc1c(C#N)c(SC(C(N)=O)c2ccccc2)nc(N2CC[C@H](N)C2)c1C#N (stereo partly drawn) [Example 528, 2-((6-((S)-3-aminopyrrolidin-1-yl)-3,5-dicyano-4-ethylpyridin-2-yl)thio)-2-phenylacetamide] | D (Category D: ≥6.5) | < 316 |  |  |  | 
5 | CCc1c(C#N)c(SC(C(N)=O)c2ccccc2)nc(N2CC3CC2CN3C)c1C#N (stereo not shown) [Example 303, 2-((3,5-Dicyano-4-ethyl-6-(5-methyl-2,5-diazabicyclo[2.2.1]heptan-2-yl)pyridin-2-yl)thio)-2-phenylacetamide] |  | 316 to 1000 | 316 to 1000 |  | 316 to 1000 nM and 631 nM | 
6 | CCc1c(C#N)c(SC(C(N)=O)c2ccccc2)nc(N2CCC(NC3CC3)C(F)C2)c1C#N (stereo not shown) [Example 527, 2-((3,5-dicyano-6-(4-(cyclopropylamino)-3-fluoropiperidin-1-yl)-4-ethylpyridin-2-yl)thio)-2-phenylacetamide] | D (Category D: ≥6.5) | < 316 |  |  |  | 
7 | CCOc1c(C#N)c(SC(C(N)=O)c2ccccc2)nc(N2CCCN(CCO)CC2)c1C#N (stereo not shown) [Example 193] | D (Category D: ≥6.5) | 316 to 1000 |  |  |  | 
8 | CCc1c(C#N)c(SC(C(N)=O)c2ccccc2)nc(N2CCC(CN3CCCC3)CC2)c1C#N (stereo not shown) [Example 445, 2-((3,5-dicyano-4-ethyl-6-(4-(pyrrolidin-1-ylmethyl)piperidin-1-yl)pyridin-2-yl)thio)-2-phenylacetamide] | D (Category D: ≥6.5) | < 316 |  |  |  | 
9 | CCc1c(C#N)c(SCc2ccc(CNC3CCNC3=O)cc2)nc(N2CCCN(C)CC2)c1C#N (stereo not shown) [Example 385, 4-Ethyl-2-(4-methyl-1,4-diazepan-1-yl)-6-((4-(((2-oxopyrrolidin-3-yl)amino)methyl)benzyl)thio)pyridine-3,5-dicarbonitrile] |  | > 31600 | 316 to 1000 |  |  | 
10 | N#Cc1c(SC(C(N)=O)c2ccccc2)nc(N2CCC[C@@H](O)C2)c(C#N)c1C1CC1 (stereo partly drawn) [Example 32, 2-((3,5-dicyano-4-cyclopropyl-6-((R)-3-hydroxypiperidin-1-yl)pyridin-2-yl)thio)-2-phenylacetamide] | D (Category D: ≥6.5) | 1000 to 31600 |  |  |  | 
11 | CCc1c(C#N)c(SCc2ccc(N(C)S(C)(=O)=O)cc2)nc(N2CCOC(CN(CC)CC)C2)c1C#N (stereo not shown) [Example 580, N-(4-(((3,5-dicyano-6-(2-((diethylamino)methyl)morpholino)-4-ethylpyridin-2-yl)thio)methyl)phenyl)-N-methylmethanesulfonamide] | D (Category D: ≥6.5) | < 316 |  |  |  | 
12 | CCc1c(C#N)c(SC(C(N)=O)c2ccccc2)nc(N(C)CC(=O)NCCO)c1C#N (stereo not shown) [Example 669, 2-((6-((2-amino-2-oxo-1-phenylethyl)thio)-3,5-dicyano-4-ethylpyridin-2-yl)(methyl)amino)-N-(2-hydroxyethyl)acetamide] | D (Category D: ≥6.5) | < 316 |  |  |  | 
13 | CCc1c(C#N)c(SC(C(N)=O)c2ccccc2)nc(N(C)Cc2cnc[nH]2)c1C#N (stereo not shown) [Example 365] |  | 1000 to 31600 | 316 to 1000 |  |  | 
14 | CCc1c(C#N)c(SCc2ccc(N(C)S(C)(=O)=O)cc2)nc(N2CCC(NC(=O)C(C)(C)N)CC2)c1C#N [Example 572, 2-amino-N-(1-(3,5-dicyano-4-ethyl-6-((4-(N-methylmethylsulfonamido)benzyl)thio)pyridin-2-yl)piperidin-4-yl)-2-methylpropanamide] | D (Category D: ≥6.5) | < 316 |  |  |  | 
15 | CCc1c(C#N)c(SC(C(N)=O)c2ccccc2)nc(N2CCN(Cc3ccc[nH]3)CC2)c1C#N (stereo not shown) [Example 177, 2-((6-(4-((1H-Pyrrol-2-yl)methyl)piperazin-1-yl)-3,5-dicyano-4-ethylpyridin-2-yl)thio)-2-phenylacetamide] |  | 1000 to 31600 | 316 to 1000 |  |  | 
16 | CCc1c(C#N)c(SCc2ccc(CNC(=O)CC(C)C)cc2)nc(N2CCCN(C)CC2)c1C#N [Example 89, N-(4-(((3,5-Dicyano-4-ethyl-6-(4-methyl-1,4-diazepan-1-yl)pyridin-2-yl)thio)methyl)benzyl)-3-methylbutanamide] |  | > 31600 | 316 to 1000 |  |  | 
17 | CCc1c(C#N)c(SC(C(N)=O)c2ccccc2)nc(N2CCN(Cc3ncco3)CC2)c1C#N (stereo not shown) [Example 176, 2-((3,5-Dicyano-4-ethyl-6-(4-(oxazol-2-ylmethyl)piperazin-1-yl)pyridin-2-yl)thio)-2-phenylacetamide] |  | 316 to 1000 | 316 to 1000 |  |  | 
18 | C[C@H](N)C(=O)NC1CCN(c2nc(SC(C(N)=O)c3ccccc3)c(C#N)c(C3CC3)c2C#N)CC1 (stereo partly drawn) [Example 655, (2S)-2-amino-N-(1-(6-((2-amino-2-oxo-1-phenylethyl)thio)-3,5-dicyano-4-cyclopropylpyridin-2-yl)piperidin-4-yl)propanamide] | D (Category D: ≥6.5) | 316 to 1000 |  |  |  | 
19 | CCc1c(C#N)c(SCc2ccc(CNC(C)=O)cc2)nc(N2CCC(OC(=O)[C@@H](N)C(C)C)CC2)c1C#N [Example 289, (S)-1-(6-((4-(Acetamidomethyl)benzyl)thio)-3,5-dicyano-4-ethylpyridin-2-yl)piperidin-4-yl 2-amino-3-methylbutanoate] |  | 1000 to 31600 | 316 to 1000 |  |  | 
20 | CCc1c(C#N)c(SC(C(N)=O)c2ccccc2)nc(N2CCC(O)C2)c1C#N (stereo not shown) [Example 370, 2-((3,5-Dicyano-4-ethyl-6-(3-hydroxypyrrolidin-1-yl)pyridin-2-yl)thio)-2-phenylacetamide] |  | 1000 to 31600 | 316 to 1000 |  |  | 
21 | CCc1c(C#N)c(SC(C(N)=O)c2ccccc2)nc(N2CCN(CCCN(C)C)CC2)c1C#N (stereo not shown) [Example 120] |  | < 316 | 316 to 1000 |  | 316 to 1000 nM | 
22 | CCc1c(C#N)c(SC(C(N)=O)c2ccccc2)nc(N2CCC(NC(=O)OC(C)(C)C)C(F)(F)C2)c1C#N (stereo not shown) [Example 383, tert-Butyl (1-(6-((2-amino-2-oxo-1-phenylethyl)thio)-3,5-dicyano-4-ethylpyridin-2-yl)-3,3-difluoropiperidin-4-yl) carbamate] | D (Category D: ≥6.5) | 316 to 1000 |  |  |  | 
23 | CCc1c(C#N)c(SC(C(N)=O)c2ccccc2)nc(N(C)CCOP(=O)(O)O)c1C#N (stereo not shown) [Example 151, 2-((6-((2-Amino-2-oxo-1-phenylethyl)thio)-3,5-dicyano-4-ethylpyridin-2-yl)(methyl)amino)ethyl dihydrocien phosphate] |  | > 31600 | 1000 to 31600 |  |  | 
24 | CCc1c(C#N)c(SCc2ccc(CNS(C)(=O)=O)cc2)nc(N2CCCN(C)CC2)c1C#N [Example 79, N-(4-(((3,5-Dicyano-4-ethyl-6-(4-methyl-1,4-diazepan-1-yl)pyridin-2-yl)thio)methyl)benzyl)methanesulfonamide] | D (Category D: ≥6.5) | 316 to 1000 |  |  | 316 nM | 
25 | CCc1c(C#N)c(SC(C(N)=O)c2ccccc2)nc(N2CCCC(CN(C)C)C2)c1C#N (stereo not shown) [Example 565, 2-((3,5-dicyano-6-(3-((dimethylamino)methyl)piperidin-1-yl)-4-ethylpyridin-2-yl)thio)-2-phenylacetamide] |  | < 316 | < 316 |  |  | 
26 | CCc1c(C#N)c(SC(C(N)=O)c2ccccc2)nc(N2CC(N)C2)c1C#N (stereo not shown) [Example 281, 2-((6-(3-Aminoazetidin-1-yl)-3,5-dicyano-4-ethylpyridin-2-yl)thio)-2-phenylacetamide] | D (Category D: ≥6.5) | 316 to 1000 |  |  |  | 
27 | CCc1c(C#N)c(SCc2ccc(C(N)=O)cc2)nc(N2CCCN(C)CC2)c1C#N [Example 70, 4-(((3,5-Dicyano-4-ethyl-6-(4-methyl-1,4-diazepan-1-yl)pyridin-2-yl)thio)methyl)benzamide] |  | 316 to 1000 | 316 to 1000 |  | 316 to 1000 nM | 
28 | CCc1c(C#N)c(SCc2ccc(CNC(C)=O)cc2)nc(N2CCC(NC(C)=O)CC2)c1C#N [Example 290, N-(1-(6-((4-(Acetamidomethyl)benzyl)thio)-3,5-dicyano-4-ethylpyridin-2-yl)piperidin-4-yl)acetamide] |  | 1000 to 31600 | 316 to 1000 |  |  | 
29 | CCc1c(C#N)c(SC(C(N)=O)c2ccccc2)nc(N2CCOC(CN)C2)c1C#N (stereo not shown) [Example 562, 2-((6-(2-(aminomethyl)morpholino)-3,5-dicyano-4-ethylpyridin-2-yl)thio)-2-phenylacetamide] | D (Category D: ≥6.5) | < 316 |  |  | 79.4 nM | > 6.5
